Source: the supplement of paper PMC10307832

What was measured:
Assay in all cases: relative viability (nuclei count vs DMSO), 5 days (fraction); higher = more cells survive
NCI-H1755 = test system: NCI-H1755
Outline: (§1)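 Relative viability was taken as the ratio of nuclei in treated wells to nuclei in vehicle wells. Lung cancer cell lines in 1536-well plates received compounds by pin tool one day after seeding, either one drug alone or a fixed anchor-drug dose plus five library-drug doses (not always all listed) in √10 steps. Nuclei were counted on 4× images after 5 days of treatment, and values are medians of duplicate plates.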

NCI-H522 = test system: NCI-H522
Outline: as §1

NCI-H2170 = test system: NCI-H2170
Outline: as §1

PC-14 = test system: PC-14
Outline: as §1

HOP-62 = test system: HOP-62
Outline: as §1

COR-L 105 = test system: COR-L 105
Outline: as §1

NCI-H1734 = test system: NCI-H1734
Outline: as §1

NCI-H1395 = test system: NCI-H1395
Outline: as §1

SK-MES-1 = test system: SK-MES-1
Outline: as §1

NCI-H2342 = test system: NCI-H2342
Outline: as §1

UMC-11 = test system: UMC-11
Outline: as §1

NCI-H647 = test system: NCI-H647
Outline: as §1

COc1cc(N2CCC(C(N)=O)CC2)ccc1Nc1nc(N)c(Cl)c(Nc2ccccc2S(=O)(=O)C(C)C)n1 [HG-5-88-01] + CCNC(=O)c1noc(-c2cc(C(C)C)c(O)cc2O)c1-c1ccc(CN2CCOCC2)cc1 [Luminespib] (partner 0.01 µM)
relative viability (NCI-H1755; first compound 0.04 µM): 0.401 | relative viability (NCI-H1755; first compound 0.1265 µM): 0.32 | relative viability (NCI-H1755; first compound 0.4 µM): 0.427 | relative viability (NCI-H1755; first compound 1.265 µM): 0.385 | relative viability (NCI-H1755; first compound 4 µM): 0.599 | relative viability (NCI-H522; first compound 0.04 µM): 1.06 | relative viability (NCI-H522; first compound 0.1265 µM): 1.16 | relative viability (NCI-H522; first compound 0.4 µM): 1.05 | relative viability (NCI-H522; first compound 1.265 µM): 0.852 | relative viability (NCI-H522; first compound 4 µM): 1.21 | relative viability (NCI-H2170; first compound 0.04 µM): 0.749 | relative viability (NCI-H2170; first compound 0.1265 µM): 0.746 | relative viability (NCI-H2170; first compound 0.4 µM): 0.666 | relative viability (NCI-H2170; first compound 1.265 µM): 0.511 | relative viability (NCI-H2170; first compound 4 µM): 0.784 | relative viability (PC-14; first compound 0.04 µM): 0.173 | relative viability (PC-14; first compound 0.1265 µM): 0.209 | relative viability (PC-14; first compound 0.4 µM): 0.181 | relative viability (PC-14; first compound 1.265 µM): 0.131 | relative viability (PC-14; first compound 4 µM): 0.194 | relative viability (HOP-62; first compound 0.04 µM): 0.889 | relative viability (HOP-62; first compound 0.1265 µM): 0.932 | relative viability (HOP-62; first compound 0.4 µM): 0.878 | relative viability (HOP-62; first compound 1.265 µM): 0.964 | relative viability (HOP-62; first compound 4 µM): 1.01 | relative viability (COR-L 105; first compound 0.04 µM): 0.664 | relative viability (COR-L 105; first compound 0.1265 µM): 1.02 | relative viability (COR-L 105; first compound 0.4 µM): 0.851 | relative viability (COR-L 105; first compound 1.265 µM): 0.903 | relative viability (COR-L 105; first compound 4 µM): 0.702 | relative viability (NCI-H1734; first compound 0.04 µM): 0.214 | relative viability (NCI-H1734; first compound 0.1265 µM): 0.166 | relative viability (NCI-H1734; first compound 0.4 µM): 0.171 | relative viability (NCI-H1734; first compound 1.265 µM): 0.19 | relative viability (NCI-H1734; first compound 4 µM): 0.171 | relative viability (NCI-H1395; first compound 0.04 µM): 0.723 | relative viability (NCI-H1395; first compound 0.1265 µM): 0.611 | relative viability (NCI-H1395; first compound 0.4 µM): 0.669 | relative viability (NCI-H1395; first compound 1.265 µM): 0.532 | relative viability (NCI-H1395; first compound 4 µM): 0.989 | relative viability (SK-MES-1; first compound 0.04 µM): 0.843 | relative viability (SK-MES-1; first compound 0.1265 µM): 0.82 | relative viability (SK-MES-1; first compound 0.4 µM): 0.823 | relative viability (SK-MES-1; first compound 1.265 µM): 0.782 | relative viability (SK-MES-1; first compound 4 µM): 0.689 | relative viability (NCI-H2342; first compound 0.04 µM): 0.672 | relative viability (NCI-H2342; first compound 0.1265 µM): 0.739 | relative viability (NCI-H2342; first compound 0.4 µM): 0.688 | relative viability (NCI-H2342; first compound 1.265 µM): 0.701 | relative viability (NCI-H2342; first compound 4 µM): 0.845 | relative viability (UMC-11; first compound 0.04 µM): 0.914 | relative viability (UMC-11; first compound 0.1265 µM): 1.08 | relative viability (UMC-11; first compound 1.265 µM): 0.983 | relative viability (UMC-11; first compound 4 µM): 1.12 | relative viability (NCI-H647; first compound 0.04 µM): 0.25 | relative viability (NCI-H647; first compound 0.1265 µM): 0.363 | relative viability (NCI-H647; first compound 0.4 µM): 0.13
